Assay results as given in ChEMBL document CHEMBL1201862, “PubChem BioAssay data set” (2004).
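Grown in 96-well plates, cells were treated for 48 hours with each compound at five concentrations. Insufficient inhibition: endpoint recorded as highest concentration tested. Here, GI50 denotes the concentration required for 50% inhibition of growth.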 Activity calls are given as the source filed them. Rule as the data show it: active = GI50 up to about 1.1 µM and inactive = higher.

Experiments:
Assay in all cases: DTP human tumour cell line panel, 48 h
RPMI-8226 = system: RPMI-8226
T47D = system: T47D
SNB-19 = system: SNB-19
SW-620 = system: SW-620
NCI-H460 = system: NCI-H460
HCC 2998 = system: HCC 2998
UO-31 = system: UO-31
PC-3 = system: PC-3
Hs-578T = system: Hs-578T
K562 = system: K562
OVCAR-5 = system: OVCAR-5
BT-549 = system: BT-549
IGROV-1 = system: IGROV-1
EKVX = system: EKVX
KM12 = system: KM12
TK-10 = system: TK-10
SF-539 = system: SF-539
M19-MEL = system: M19-MEL
DMS-114 = system: DMS-114

Row | SMILES | GI50 (RPMI-8226) | GI50 (T47D) | GI50 (SNB-19) | GI50 (SW-620) | GI50 (NCI-H460) | GI50 (HCC 2998) | GI50 (UO-31) | GI50 (PC-3) | GI50 (Hs-578T) | GI50 (K562) | GI50 (OVCAR-5) | GI50 (BT-549) | GI50 (IGROV-1) | GI50 (EKVX) | GI50 (KM12) | GI50 (TK-10) | GI50 (SF-539) | GI50 (M19-MEL) | GI50 (DMS-114)
1 | COc1ccc2c(c1)CCCc1c-2nc2ccccc2c1N | 5.87 µM (inactive) | 12.4 µM (inactive) | 15.9 µM (inactive) | 10.7 µM (inactive) | 4.44 µM (inactive) | 1.87 µM (inactive) | 5.35 µM (inactive) | 10.3 µM (inactive) | 17.8 µM (inactive) | 5.14 µM (inactive) | 10.2 µM (inactive) | 16.2 µM (inactive) | 12.4 µM (inactive) | 6.28 µM (inactive) | 14 µM (inactive) | 10.7 µM (inactive) | 12.4 µM (inactive) |  | 
2 | C=C[C@H]1CN2CCc3c([nH]c4c([C@@H]5CCCN5C)c(O)ccc34)[C@@H]2C[C@@H]1C[C@H]1c2[nH]c3ccccc3c2CCN1C | 0.35 µM (active) | 1.48 µM (inactive) | 1.3 µM (inactive) | 1.23 µM (inactive) | 1.49 µM (inactive) | 0.177 µM (active) | 1.08 µM (active) | 1.41 µM (inactive) | 1.52 µM (inactive) | 0.255 µM (active) | 1.85 µM (inactive) | 1.75 µM (inactive) | 1.31 µM (inactive) | 1.58 µM (inactive) | 1.41 µM (inactive) | 1.59 µM (inactive) | 1.57 µM (inactive) |  | 
3 | N=C(N)NS(=O)(=O)c1ccc(Nc2c3ccccc3nc3c(C(=O)NCCO)cccc23)cc1 | 0.162 µM (active) | 0.148 µM (active) | 0.221 µM (active) | 0.188 µM (active) | 0.127 µM (active) | 0.19 µM (active) | 0.175 µM (active) | 0.21 µM (active) | 0.209 µM (active) | 0.216 µM (active) | 0.244 µM (active) | 0.143 µM (active) | 0.141 µM (active) | 0.248 µM (active) | 0.177 µM (active) | 0.281 µM (active) | 0.193 µM (active) |  | 
4 | Cc1ccc(C(=O)N/N=C(\N=N\c2cccc([N+](=O)[O-])c2)c2ccc(N(CCC#N)CCC#N)cc2C)cc1 | 13 µM (inactive) | 9.18 µM (inactive) | 53.7 µM (inactive) | 38.7 µM (inactive) | 29 µM (inactive) | 30.9 µM (inactive) | 39.5 µM (inactive) | 23.8 µM (inactive) | 23.4 µM (inactive) | 22.8 µM (inactive) | 59.4 µM (inactive) | 19.6 µM (inactive) | 19.2 µM (inactive) | 25.5 µM (inactive) | 19.7 µM (inactive) | 45.1 µM (inactive) | 4.58 µM (inactive) |  | 
5 | CN1C(=O)NC2(O)c3ccccc3C(=O)C12O (configuration not stated) | > 100 µM (inactive) |  | > 100 µM (inactive) | > 100 µM (inactive) | > 100 µM (inactive) |  | > 100 µM (inactive) |  |  | > 100 µM (inactive) | > 100 µM (inactive) |  | > 100 µM (inactive) | > 100 µM (inactive) | > 100 µM (inactive) | > 100 µM (inactive) |  | > 100 µM (inactive) | > 100 µM (inactive)
6 | CCC1=CCN(c2cc(C)ccn2)OC1c1ccc(OC)cc1 (configuration not stated) | 22.6 µM (inactive) |  | 46.1 µM (inactive) | 38.1 µM (inactive) | 31.7 µM (inactive) | 40.6 µM (inactive) | 25.6 µM (inactive) |  |  | 34 µM (inactive) | 26.5 µM (inactive) |  | 55.7 µM (inactive) | 40.6 µM (inactive) | 31.2 µM (inactive) |  | > 10 µM (inactive) | 31.5 µM (inactive) | 27.9 µM (inactive)
7 | Cc1ccc2c(c1)/C(=N/Nc1ccccc1[N+](=O)[O-])C(=O)N2 | 6.73 µM (inactive) | 2.83 µM (inactive) | 37.2 µM (inactive) | 35.3 µM (inactive) | 3.89 µM (inactive) | > 100 µM (inactive) | 2.05 µM (inactive) | 24.8 µM (inactive) | 3.93 µM (inactive) | 27.9 µM (inactive) | 10.9 µM (inactive) | 45.8 µM (inactive) | 1.68 µM (inactive) | 2.65 µM (inactive) | 4.19 µM (inactive) | 3.24 µM (inactive) | 2.11 µM (inactive) |  | 
8 | COC1CCC(OS(C)(=O)=O)CO1 (configuration not stated) | 26.2 µM (inactive) |  | > 100 µM (inactive) |  | > 100 µM (inactive) |  | > 100 µM (inactive) |  |  | 69 µM (inactive) | 42.2 µM (inactive) |  | > 100 µM (inactive) |  | > 100 µM (inactive) |  | > 100 µM (inactive) | > 100 µM (inactive) | > 100 µM (inactive)
9 | COC(=O)/C(C#N)=C1\CCC(O)N1C (configuration not stated) | > 100 µM (inactive) |  | > 100 µM (inactive) | > 100 µM (inactive) | > 100 µM (inactive) | > 100 µM (inactive) | > 100 µM (inactive) |  |  | > 100 µM (inactive) | > 100 µM (inactive) |  | > 100 µM (inactive) | > 100 µM (inactive) | > 100 µM (inactive) | > 100 µM (inactive) | > 100 µM (inactive) |  | > 100 µM (inactive)
